According to patent publication US20030153056A1, “Glycosyltransferase proteins” (priority 2000, published 2003):

What was measured:
[1] = molecular target: T1, Brainiac β1-3-N-acetylglucosaminyltransferase (Drosophila melanogaster, UniProt Q24157); assay: Substrate specificities of Brainiac β1-3-N-acetylglucosaminyltransferase (acceptor panel, microsomal preparations); assay type: biochemical; details: microsomes of pVL-Brainiac infected High Five cells, background of irrelevant construct subtracted, donor UDP-GlcNAc
T1 construct: The full coding region of Brainiac was prepared by PCR using genomic DNA; made in house; host or cells: High Five insect cells (baculovirus vector pVL1393); microsomal fractions
T1 sequence (Q24157 1-325): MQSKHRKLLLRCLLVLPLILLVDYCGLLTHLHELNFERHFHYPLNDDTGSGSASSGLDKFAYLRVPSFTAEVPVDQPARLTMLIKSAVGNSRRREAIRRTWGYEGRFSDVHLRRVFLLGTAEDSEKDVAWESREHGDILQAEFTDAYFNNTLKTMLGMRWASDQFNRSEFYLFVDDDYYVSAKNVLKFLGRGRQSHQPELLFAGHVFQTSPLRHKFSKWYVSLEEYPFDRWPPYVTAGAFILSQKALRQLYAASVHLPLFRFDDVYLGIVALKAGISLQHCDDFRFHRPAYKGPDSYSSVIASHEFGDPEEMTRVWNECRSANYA

[2] = molecular target: T1, Brainiac β1-3-N-acetylglucosaminyltransferase; assay: as above; assay type: biochemical; details: panel of mono- and disaccharides with aglycons and oligosaccharides
Description: Fringe-Myc and Fringe-NNN-myc were cloned into baculovirus vector pVL1393 (Pharmingen) and expressed in High Five™ cells. Microsomal fractions were prepared by hypotonic lysis ultracentrifugation and solubilised 1:2 (vol/vol) in 20 mM Cacodylate pH 6.5, 1% Triton-CF54, 5 MM MnCl2 containing Leupeptin and Aprotinin as described previously (Amado et al., 1998). For glycosyltransferase assays, 5 μl of this suspension were added to a total of 50 μl reaction mixture containing 25 mM Cacodylate pH 6.5, 0.25% Triton-CF54, 5 mM MnCl2, 500 mM free sugar, 100 μM UDP-^14C-sugar (1280-2000 cpm/nmol). Reactions were incubated at 37° C. for 45-60 minutes, followed by Dowex-1 anion exchange chromatography and scintillation counting of 50% of the flow-through.
Brainiac-full was cloned into baculovirus vector pVL1393 (Pharmingen) and expressed in High Five cells. […] Initial analysis of activity was done with five monosaccharides and four donor sugar nucleotides as described in FIG. 5 for Fringe. Assays with the acceptors listed in Table 1 were performed as described for Fringe except no additional detergent was added. Reactions with glycolipid substrates were performed in the presence of 0.5% N-octylglucoside in 50 ul reaction volume containing 10 μg glycolipid.
In the latter case the acceptor sugar was not determined.

OC[C@H]1OC(O)[C@H](O)[C@@H](O)[C@H]1O (stereo partly drawn) [D-Gal]
Brainiac activity with substrate ([1]; substrate 2 mM): 0.00 nmol/h/mg | Brainiac activity with substrate ([1]; substrate 20 mM): 0.00 nmol/h/mg | Acceptor for Brainiac, in words (detailed analysis) [2]: not found to be acceptors
